Experimental findings from PMC5109907, “Enhancing succinic acid biosynthesis in Escherichia coli by engineering its global transcription factor, catabolite repressor/activator (Cra)” (Scientific Reports, 2016) are described below.

Broadly, the Kd is the constant that tells how readily two partners part at equilibrium. Read a high Kd as weaker binding.

The target of data set [1] is T1, Cra (catabolite repressor/activator) (Escherichia coli, UniProt P0ACP1, R57K/A58G/G59Q/R60Q/S75H/D148I/R149I, form not given).
T1 construct: full-length, His6-tagged (tag encoded by the 3' primer, C-terminal), pET28a, expressed in E. coli BL21, Ni resin
The experiment in a line: isothermal titration calorimetry, one-site fit. Type of data set: binding. Particulars: 25 °C; 15 μM protein, 50 mM FBP injected; Tang1541 mutant. On the technique in general: In ITC the heat of successive injections is recorded.

Data set [2] addresses T2, Cra (catabolite repressor/activator) (Escherichia coli, UniProt P0ACP1).
T2 construct: full-length, His6-tagged (tag encoded by the 3' primer, C-terminal), pET28a, expressed in E. coli BL21, Ni resin
The experiment in a line: isothermal titration calorimetry, one-site fit. It is filed as binding. The conditions noted are these: 25 °C; 15 μM protein, 50 mM FBP injected.

For data set [3], the target named is T3, Cra (catabolite repressor/activator) (Escherichia coli, UniProt P0ACP1, R57K/A58T/G59N/R60Q/S75H/D148I/R149I, form not given).
T3 construct: full-length, His6-tagged (tag encoded by the 3' primer, C-terminal), pET28a, expressed in E. coli BL21, Ni resin
As to the kind of experiment: isothermal titration calorimetry, one-site fit. The conditions noted are these: 25 °C; 15 μM protein, 50 mM FBP injected; Tang1544 mutant. Type of data set: binding.

Data set [4] deals with Cra mutant (Tang1544) (Escherichia coli, UniProt P0ACP1 1-334, R57K;A58T;G59N;R60Q;S75H;D148I;R149I). As to the kind of experiment: EMSA; no FBP; less free DNA than Tang1534; EMSA: 50 nM oligonucleotide mixture annealed in TE buffer, with or without 1 mM FBP, 15 min at 30 C, nondenaturing 10% polyacrylamide gel, ethidium bromide; binding salt and pH not stated. The conditions noted are these: protein: recombinant; tags: His6; chain copies: 2; label: none (ethidium bromide stain); blunt. For orientation: Mobility shift assays separate free from complexed probe on a gel.

Data set [5] deals with Cra wild type (Escherichia coli, UniProt P0ACP1 1-334). As to the kind of experiment: EMSA; no FBP; EMSA: 50 nM oligonucleotide mixture annealed in TE buffer, with or without 1 mM FBP, 15 min at 30 C, nondenaturing 10% polyacrylamide gel, ethidium bromide; binding salt and pH not stated. Particulars: protein: recombinant; tags: His6; chain copies: 4; label: none (ethidium bromide stain); blunt.

For `O=P(O)(O)OC[C@H]1OC(O)(COP(=O)(O)O)[C@@H](O)[C@@H]1O` (some centres unmarked) [FBP, fructose-1,6-bisphosphate], the dissociation constant (Kd) stood at 130 ± 37 nM in data set [1], 1400 nM in data set [2] and 95 ± 24 nM in data set [3].

B1: aceBAK 18-bp Cra site (dsDNA)
DNA 1: TCGTTAAGCGATTCAGCA
DNA 2: TGCTGAATCGCTTAACGA
With B1, the binding result in data set [4] and in data set [5] was “binds” in each case.
